Values belong to the compound of their own block, whether it stands above or below them.
Test system: Wistar (Crl:WI(Han)) rats
Experiment: Mass spectrometry-based plasma metabolite profiling of rats treated with known inducers of thyroid function impairment
Type: in vivo, rat
Conditions: ratio of group medians vs controls
Description: At the beginning of the study the animals were 10-11 weeks old. Each dose group in the studies consisted of five rats per sex, and was compared with controls (10 rats per sex). […] The dose levels were chosen to show the typical overt (high dose) and slight (low dose) toxicological symptoms of the substances as described in the literature or in BASF internal study reports.
Blood samples were withdrawn from the retro-orbital sinus in all rats under isoflurane anesthesia on study days 7, 14 and 28 after a fasting period of 16-20 hours.
For mass spectrometry-based metabolite profiling analysis, plasma samples were extracted by a proprietary method which delivers a polar and a non-polar fraction. For GC-MS analysis, the non-polar fraction was treated with methanol under acidic conditions to yield the fatty acid methyl esters. Both fractions were further derivatised with Omethyl-hydroxyamine hydrochloride and pyridine to convert oxo groups to Omethyloximes and subsequently with a silylating agent before analysis.
In LC-MS/MS analysis, both fractions were reconstituted in appropriate solvent mixtures. HPLC was performed by gradient elution on reversed phase separation columns. For mass spectrometric detection metanomics proprietary technology was applied, which allows target and high sensitivity MRM (Multiple Reaction Monitoring) profiling in parallel to a full screen analysis. […] Moreover, several hundred additional analytes giving a fingerprint of the sample were included in the methods.
Following comprehensive analytical validation steps, the data for each analyte were normalized against data from pool samples. These samples were run in parallel through the whole process to account for process variability.
The sex- and day-stratified heteroscedastic t-test (“Welch test”) was applied to compare treated groups with respective controls. p-Values and ratios of corresponding group medians were collected as metabolic profiles and fed into a database.

[1] = male rats, mh7 (study day 7), Table 4
[2] = male rats, mh14 (study day 14), Table 4
[3] = male rats, mh28 (study day 28), Table 4
[4] = female rats, fh7 (study day 7), Table 1
[5] = female rats, fh14 (study day 14), Table 1
[6] = female rats, fh28 (study day 28), Table 1
[7] = male rats, mh7 (study day 7), Table 2
[8] = male rats, mh14 (study day 14), Table 2
[9] = male rats, mh28 (study day 28), Table 2

SMILES: Cc1cccc(C)c1N(Cn1cccn1)C(=O)CCl [Metazachlor]
Behenic acid (C22:0) [1]: 1.92
Cholesterol [1]: 1.71
Citrate [1]: 0.99
Cytosine [1]: 0.64
Galactose, lipid fraction [1]: 1.81
Glycerol phosphate [1]: 1.63
Glycine [1]: 1.12
Lignoceric acid (C24:0) [1]: 1.60
Mannose [1]: 1.22
Nervonic acid C24:(cis[15]1) [1]: 3.17
Phospha-tidylcholine (C18:0, 18:2) [1]: 1.40
Sphingomyelin (d18:1, C16:0) [1]: 2.54
Stearic acid (C18:0) [1]: 1.45
Threonic acid [1]: 1.16
dihomo-gamma-Linolenic acis (C20:cis[8,11,14]3) [1]: 2.41
erythro-Sphingosine [1]: 2.31
myo-Inositol-2-phosphate [1]: 2.17
threo-Sphingosine [1]: 2.05
Behenic acid (C22:0) [2]: 2.47
Cholesterol [2]: 2.15
Citrate [2]: 0.94
Cytosine [2]: 0.75
Galactose, lipid fraction [2]: 2.27
Glycerol phosphate [2]: 2.20
Glycine [2]: 1.10
Lignoceric acid (C24:0) [2]: 2.38
Mannose [2]: 1.37
Nervonic acid C24:(cis[15]1) [2]: 4.00
Phospha-tidylcholine (C18:0, 18:2) [2]: 1.55
Sphingomyelin (d18:1, C16:0) [2]: 2.36
Stearic acid (C18:0) [2]: 2.36
Threonic acid [2]: 1.25
dihomo-gamma-Linolenic acis (C20:cis[8,11,14]3) [2]: 5.18
erythro-Sphingosine [2]: 3.47
myo-Inositol-2-phosphate [2]: 4.01
threo-Sphingosine [2]: 3.22
Behenic acid (C22:0) [3]: 2.05
Cholesterol [3]: 2.43
Citrate [3]: 1.08
Cytosine [3]: 0.66
Galactose, lipid fraction [3]: 2.57
Glycerol phosphate [3]: 2.36
Glycine [3]: 1.26
Lignoceric acid (C24:0) [3]: 2.11
Mannose [3]: 1.46
Nervonic acid C24:(cis[15]1) [3]: 3.63
Phospha-tidylcholine (C18:0, 18:2) [3]: 1.51
Sphingomyelin (d18:1, C16:0) [3]: 2.32
Stearic acid (C18:0) [3]: 2.59
Threonic acid [3]: 1.36
dihomo-gamma-Linolenic acis (C20:cis[8,11,14]3) [3]: 3.36
erythro-Sphingosine [3]: 3.68
myo-Inositol-2-phosphate [3]: 2.79
threo-Sphingosine [3]: 3.54

5-O-Methylsphingosine [4]: 3.55
Asparagine [4]: 1.17
Behenic acid (C22:0) [4]: 2.08
Citrate [4]: 0.83
Docosahexaenoic acid (C22:cis[4,7,10,13,16]6) [4]: 2.16
Glycine [4]: 1.14
Ketoleucine [4]: 0.86
Lysophosphatidylcholine (C18:2) [4]: 1.52
Phosphatidylcholine (C16:1, C18:2) [4]: 1.89
Phosphatidylcholine (C18:2, C20:4) [4]: 1.39
Pyruvate [4]: 0.62
Tricosanoic acid (C23:0) [4]: 2.05
erythro-Sphingosine [4]: 2.56
threo-Sphingosine [4]: 2.46
Sphingomyelin (d18:1, C16:0) (female rats, fh7 (study day 7), Table 1, first listing): 1.89
Sphingomyelin (d18:1, C16:0) (female rats, fh7 (study day 7), Table 1, second listing): 1.45
5-O-Methylsphingosine [5]: 3.80
Asparagine [5]: 1.12
Behenic acid (C22:0) [5]: 2.63
Citrate [5]: 0.76
Docosahexaenoic acid (C22:cis[4,7,10,13,16]6) [5]: 1.32
Glycine [5]: 1.14
Ketoleucine [5]: 0.80
Lysophosphatidylcholine (C18:2) [5]: 1.57
Phosphatidylcholine (C16:1, C18:2) [5]: 2.40
Phosphatidylcholine (C18:2, C20:4) [5]: 1.25
Pyruvate [5]: 0.53
Tricosanoic acid (C23:0) [5]: 2.54
erythro-Sphingosine [5]: 3.21
threo-Sphingosine [5]: 3.21
Sphingomyelin (d18:1, C16:0) (female rats, fh14 (study day 14), Table 1, first listing): 2.54
Sphingomyelin (d18:1, C16:0) (female rats, fh14 (study day 14), Table 1, second listing): 1.44
5-O-Methylsphingosine [6]: 2.83
Asparagine [6]: 1.12
Behenic acid (C22:0) [6]: 2.03
Citrate [6]: 0.84
Docosahexaenoic acid (C22:cis[4,7,10,13,16]6) [6]: 1.22
Glycine [6]: 1.28
Ketoleucine [6]: 0.78
Lysophosphatidylcholine (C18:2) [6]: 1.31
Phosphatidylcholine (C16:1, C18:2) [6]: 2.21
Phosphatidylcholine (C18:2, C20:4) [6]: 1.33
Pyruvate [6]: 0.79
Tricosanoic acid (C23:0) [6]: 1.96
erythro-Sphingosine [6]: 2.44
threo-Sphingosine [6]: 2.37
Sphingomyelin (d18:1, C16:0) (female rats, fh28 (study day 28), Table 1, first listing): 1.77
Sphingomyelin (d18:1, C16:0) (female rats, fh28 (study day 28), Table 1, second listing): 1.31
3-O-Methylsphingosine [7]: 3.47
5-O-Methylsphingosine [7]: 3.57
14-Methyl-Pentadecanoic acid [7]: 1.13
17-Methyloctadecanoic acid [7]: 1.36
Arginine [7]: 1.09
Cholesterol [7]: 1.98
Citrate [7]: 0.69
Dihom-gamma-Linolenic acid (C20:cis[8,11,14]3) [7]: 2.38
Lignoceric acid (C24:0) [7]: 2.12
Phytosphingosine [7]: 2.08
Sphingomyelin (d18:1, C16:0) [7]: 2.24
Tricosanoic acid (C23:0) [7]: 1.93
alpha-Tocopherol [7]: 1.76
erythro-Sphingosine [7]: 2.92
threo-Sphingosine [7]: 3.02
Glutamate (male rats, mh7 (study day 7), Table 2, first listing): 0.61
Glutamate (male rats, mh7 (study day 7), Table 2, second listing): 0.75
Behenic acid (C22:0) [1]: 2.02
Cholesterol [1]: 1.69
Citrate [1]: 0.69
Cytosine [1]: 0.65
Galactose, lipid fraction [1]: 1.60
Glycerol phosphate [1]: 2.09
Glycine [1]: 1.42
Lignoceric acid (C24:0) [1]: 2.12
Mannose [1]: 1.06
Nervonic acid C24:(cis[15]1) [1]: 2.59
Phospha-tidylcholine (C18:0, 18:2) [1]: 1.11
Sphingomyelin (d18:1, C16:0) [1]: 2.24
Stearic acid (C18:0) [1]: 1.34
Threonic acid [1]: 0.72
dihomo-gamma-Linolenic acis (C20:cis[8,11,14]3) [1]: 2.38
erythro-Sphingosine [1]: 2.92
myo-Inositol-2-phosphate [1]: 2.55
threo-Sphingosine [1]: 3.02
3-O-Methylsphingosine [8]: 3.85
5-O-Methylsphingosine [8]: 4.15
14-Methyl-Pentadecanoic acid [8]: 0.85
17-Methyloctadecanoic acid [8]: 0.92
Arginine [8]: 1.09
Cholesterol [8]: 2.31
Citrate [8]: 0.69
Dihom-gamma-Linolenic acid (C20:cis[8,11,14]3) [8]: 3.22
Lignoceric acid (C24:0) [8]: 2.82
Phytosphingosine [8]: 2.92
Sphingomyelin (d18:1, C16:0) [8]: 2.27
Tricosanoic acid (C23:0) [8]: 2.69
alpha-Tocopherol [8]: 2.66
erythro-Sphingosine [8]: 3.71
threo-Sphingosine [8]: 3.78
Glutamate (male rats, mh14 (study day 14), Table 2, first listing): 0.57
Glutamate (male rats, mh14 (study day 14), Table 2, second listing): 0.49
Behenic acid (C22:0) [2]: 3.03
Cholesterol [2]: 1.93
Citrate [2]: 0.69
Cytosine [2]: 0.46
Galactose, lipid fraction [2]: 1.46
Glycerol phosphate [2]: 1.67
Glycine [2]: 1.25
Lignoceric acid (C24:0) [2]: 2.82
Mannose [2]: 1.04
Nervonic acid C24:(cis[15]1) [2]: 3.00
Phospha-tidylcholine (C18:0, 18:2) [2]: 1.28
Sphingomyelin (d18:1, C16:0) [2]: 2.27
Stearic acid (C18:0) [2]: 1.40
Threonic acid [2]: 0.69
dihomo-gamma-Linolenic acis (C20:cis[8,11,14]3) [2]: 3.22
erythro-Sphingosine [2]: 3.71
myo-Inositol-2-phosphate [2]: 2.35
threo-Sphingosine [2]: 3.78
3-O-Methylsphingosine [9]: 4.55
5-O-Methylsphingosine [9]: 3.40
14-Methyl-Pentadecanoic acid [9]: 0.54
17-Methyloctadecanoic acid [9]: 0.45
Arginine [9]: 1.14
Cholesterol [9]: 2.03
Citrate [9]: 0.73
Dihom-gamma-Linolenic acid (C20:cis[8,11,14]3) [9]: 2.02
Lignoceric acid (C24:0) [9]: 2.16
Phytosphingosine [9]: 3.04
Sphingomyelin (d18:1, C16:0) [9]: 1.92
Tricosanoic acid (C23:0) [9]: 2.50
alpha-Tocopherol [9]: 2.18
erythro-Sphingosine [9]: 3.47
threo-Sphingosine [9]: 4.30
Glutamate (male rats, mh28 (study day 28), Table 2, first listing): 0.46
Glutamate (male rats, mh28 (study day 28), Table 2, second listing): 0.40
Behenic acid (C22:0) [3]: 3.01
Cholesterol [3]: 1.56
Citrate [3]: 0.73
Cytosine [3]: 0.39
Galactose, lipid fraction [3]: 1.53
Glycerol phosphate [3]: 1.46
Glycine [3]: 0.98
Lignoceric acid (C24:0) [3]: 2.16
Mannose [3]: 0.87
Nervonic acid C24:(cis[15]1) [3]: 2.23
Phospha-tidylcholine (C18:0, 18:2) [3]: 1.35
Sphingomyelin (d18:1, C16:0) [3]: 1.92
Stearic acid (C18:0) [3]: 1.16
Threonic acid [3]: 0.69
dihomo-gamma-Linolenic acis (C20:cis[8,11,14]3) [3]: 2.02
erythro-Sphingosine [3]: 3.47
myo-Inositol-2-phosphate [3]: 1.85
threo-Sphingosine [3]: 4.30
SMILES: Cn1cc[nH]c1=S [Methimazole]
